Measurements published in patent US20240139207A1, “METHODS FOR TREATING PULMONARY HYPERTENSION” (United Therapeutics Corporation, priority 2022, published 2024).

How the values were obtained:
[1] = tested on: patients with pulmonary arterial hypertension; experiment: Phase 4 open-label 16-week study: safety and tolerability, prostanoid-related adverse events; type: in vivo, human; conditions: for most bothersome AE: during the phase of the labelled form; for participants who received acetaminophen for prostacyclin-related headache / participants who received loperamide for prostacyclin-related diarrhea / participants who received ondansetron for prostacyclin-related nausea/vomiting: per-protocol population (n=29), while on the labelled form
Protocol: Safety and tolerability were assessed at each scheduled visit and in between visits as needed throughout the duration of the study. Tolerability measures of interest included incidence of all adverse events (AEs) and prostanoid-related AEs including headache, diarrhea, nausea, vomiting, flushing, jaw pain and extremity pain. […] Prostanoid-related events captured by the survey were only recorded if the event was unusual with respect to intensity, frequency, or duration compared to symptoms in the patient's medical history. Patient compliance with taking oral treprostinil was assessed by performing study drug accountability at each scheduled study visit. The primary endpoint and all efficacy endpoints were analyzed using the per-protocol population, which included all patients without major protocol deviations unless otherwise specified. The exact (Clopper-Pearson) 95% confidence interval was calculated for the primary endpoint. […] For continuous variables, descriptive statistics are reported as median (interquartile range, IQR or range) or mean (±standard deviation, SD). For categorical variables, descriptive statistics include frequency and percentage of patients in each category. Changes from baseline to Week 16 for continuous variables were analyzed using Wilcoxon signed rank test. The change in FC from baseline to Week 16 was analyzed using McNemar's test. The p-values from these tests were derived for descriptive purposes and not part of a formal hypothesis testing framework.

[2] = tested on: patients with pulmonary arterial hypertension; experiment: Phase 4 open-label 16-week study: clinical parameters, risk stratification, patient-reported outcomes; type: in vivo, human
Excerpt: The secondary endpoints of this study included measurements in: changes in prostanoid adverse events (AEs), echocardiograms, change in 6-minute walk distance (6MWD), change in Borg dyspnea score, change in World Health Organization (WHO) functional class (FC), change in serum N-terminal pro-brain natriuretic peptide (NT-proBNP) levels, impact of pulmonary hypertension on a person's life (health-related quality of life), and treatment satisfaction. Specifically, this study sought to measure the percentage of subjects that improved in each of the following individual four clinical parameters at Week 16 (6MWD, NT-proBNP, WHO FC, right atrial area) to a lower risk stratum, as defined by the 2015 ESC/ERS guidelines (Gailè et al., DOI: 10.1183/13993003.01032-2015), compared to baseline measurements. An additional endpoint was determining the percentage of subjects that meet each of the following four individual clinical parameters at Week 16 in the low risk category, as defined by 2015 ESC/ERS guidelines: 6MWD>440 meters, […].
(§1) Based on the 2015 ESC/ERS Guidelines, specific hemodynamic inclusion criteria included a mean pulmonary arterial pressure ≥25 mmHg, pulmonary artery wedge pressure or left ventricular end-diastolic pressure ≤15 mmHg, and pulmonary vascular resistance >3 Wood units, in the absence of unrepaired congenital heart disease. Other key inclusion criteria were World Health Organization functional class (FC) II or III, 6-minute walk distance (6MWD)≥250 m, and a REVEAL 2.0 risk score ≤9 (Benza et al. 2021, DOI: https://doi.org/10.1016/j.chest.2020.08.2069). Patients could be receiving up to two oral PAH background therapies if taken at a stable dose for ≥30 days prior to baseline. As this study focused on the addition of a new therapy rather than the replacement of one therapy by another therapy, participants were eligible regardless of the number of pulmonary arterial hypertension background therapies (0, 1, or 2) they were receiving at baseline. […] Baseline assessments were collected up to 14 days prior to initiation of parenteral treprostinil, and included hemodynamics via echocardiogram and RHC, FC, N-terminal-pro brain natriuretic peptide (NT-proBNP), 6MWD, and medication history. Of note, historical RHC data could be used for baseline assessments if performed up to 180 days prior to initiating parenteral treprostinil. Echocardiograms were uploaded and stored in a central repository and evaluated by an independent central reader in accordance with the American Society of Echocardiography Guidelines (Bossone et al., DOI: 10.1016/j.echo.2012.10.009).
(§2) Once patients reached at least 20 ng/kg/min and were deemed suitable for transition based on physician assessment, they were transitioned at Week 2,4, or 8 to oral treprostinil via cross-titration in an inpatient or outpatient setting over 1-21 days. All participants still receiving parenteral treprostinil at Week 8 began transitioning to oral treprostinil regardless of their parenteral treprostinil dose unless deemed unsuitable for transition by their clinician. Before transition, 6MWD, WHO FC, NT-proBNP, and echocardiography parameters were assessed.
The primary endpoint was the percentage of patients who achieved an oral treprostinil TDD of at least 12 mg (0.171 mg/kg for patients <70 kg) at Week 16. Secondary endpoints included change from baseline to Week 16 in risk strata and clinical parameters, where baseline values were collected within 14 days prior to parenteral treprostinil initiation. Changes in risk strata for FC, NT-proBNP, 6MWD, and right atrial (RA) area were assessed using the 2015 ESC/ERS Guidelines, which categorizes risk for each determinant as low, intermediate, and high (Galiè et al., 2016). Clinical parameters of interest included FC, NT-proBNP, 6MWD, echocardiography parameters, REVEAL Lite 2 score (Benza et al., 2021), and Borg Dyspnea Score (Borg, 1982, DOI: https://doi.org/10.1249/00005768-198205000-00012). […]

[3] = tested on: patients with pulmonary arterial hypertension; experiment: Phase 4 open-label 16-week study: echocardiography parameters; type: in vivo, human
Excerpt: as §1, §2
The primary endpoint was the percentage of patients who achieved an oral treprostinil TDD of at least 12 mg (0.171 mg/kg for patients <70 kg) at Week 16. Secondary endpoints included change from baseline to Week 16 in risk strata and clinical parameters, where baseline values were collected within 14 days prior to parenteral treprostinil initiation. Changes in risk strata for FC, NT-proBNP, 6MWD, and right atrial (RA) area were assessed using the 2015 ESC/ERS Guidelines, which categorizes risk for each determinant as low, intermediate, and high (Galiè et al., 2016). Clinical parameters of interest included FC, NT-proBNP, 6MWD, echocardiography parameters, REVEAL Lite 2 score (Benza et al., 2021), and Borg Dyspnea Score (Borg, 1982, DOI: https://doi.org/10.1249/00005768-198205000-00012). The REVEAL Lite 2 score includes clinical parameters to determine the risk status (low, intermediate, and high) for pulmonary arterial hypertension. The Borg Dyspnea Score ranges from 0 to 10, where 0 indicates no dyspnea and 10 indicates very, very heavy (almost maximal) dyspnea. Patient-reported outcomes were assessed using the emPHasis-10 quality of life questionnaire (Yorke et al., 2014, DOI: 10.1183/09031936.00127113) and the Pulmonary Arterial Hypertension Symptom Scale (PAHSS) (Matura et al., 2015, DOI: https://doi.org/10.1016/j.apnr.2014.04.001). The Treatment Satisfaction Questionnaire for Medication (TSQM) (Atkinson et al., 2004, DOI: https://doi.org/10.1186/1477-7525-2-12) was used to measure patient satisfaction with their medication over the last two to three weeks; higher scores indicate greater satisfaction. EmPHasis-10 scores can range from 0 to 50, where lower scores indicate better quality of life. […]

[4] = tested on: Pulmonary hypertension patients; conditions: cited from earlier work
[5] = tested on: Pulmonary arterial hypertension patients; conditions: cited from earlier work
[6] = Oral Treprostinil Phase (After Transition), n = 32
[7] = 2015 ESC/ERS risk strata, baseline to Week 16
[8] = Parenteral Treprostinil Phase (Before Transition), n = 35
[9] = transition visit, per-protocol population

SMILES: CCCCC[C@H](O)CC[C@@H]1[C@H]2Cc3cccc(OCC(=O)O)c3C[C@H]2C[C@H]1O [oral treprostinil, treprostinil]
- Diarrhea, patients with AE [1, 6]: 17 (53) n (%)
- Extremity pain, patients with AE [1, 6]: 11 (34) n (%)
- Flushing, patients with AE [1, 6]: 17 (53) n (%)
- Headache, patients with AE [1, 6]: 19 (59) n (%)
- Jaw pain, patients with AE [1, 6]: 16 (50) n (%)
- Nausea, patients with AE [1, 6]: 21 (66) n (%)
- Vomiting, patients with AE [1, 6]: 9 (28) n (%)
- adverse events headache, nausea, and vomiting ([1]; after transition from Remodulin to Orenitram): tended to improve
- use of all concomitant medications ([1]; after transitioning from parenteral to oral treprostinil): decreased
- bothersomeness of extremity pain, jaw pain and headache ([1]; after transitioning to oral treprostinil, scale 1 bothers me a lot to 4 not at all bothersome): not at all bothersome
- most bothersome AE [1]: diarrhea and nausea
- participants who received acetaminophen for prostacyclin-related headache [1]: 38%
- participants who received loperamide for prostacyclin-related diarrhea [1]: 38%
- participants who received ondansetron for prostacyclin-related nausea/vomiting [1]: 48%
- tolerability ([1]; three times daily): well tolerated
- percentage of patients who shifted to a lower risk stratum for 6MWD [2, 7]: 15%
- percentage of patients who shifted to a lower risk stratum for FC [2, 7]: 39%
- percentage of patients who shifted to a lower risk stratum for NT-proBNP [2, 7]: 39%
- percentage of patients who shifted to a lower risk stratum for RA area [2, 7]: 35%
- 6MWD, median ([2]; Week 16): 395 m
- Borg Dyspnea Score, median ([2]; Week 16): 3
- NT-proBNP, median ([2]; Week 16): 212 ng/L
- REVEAL Lite 2 score, median ([2]; Week 16): 3.5
- percentage of patients classified as FC I ([2]; Week 16 (0% at baseline)): 46%
- Borg Dyspnea Score, median change from baseline ([2]; baseline to Week 16): −1
- NT-proBNP, median change from baseline ([2]; baseline to Week 16): -134 ng/L
- PAHSS domains ([2]; baseline to Week 16): improvements were seen in most domains
- REVEAL Lite 2 score, median change from baseline ([2]; baseline to Week 16): −1
- emPHasis- scores (quality of life), median change from baseline ([2]; baseline to Week 16): −3
- patients improving in WHO FC ([2]; baseline to Week 16): 68%
- patients worsening in WHO FC ([2]; baseline to Week 16): one
- Cardiac output, median ([3]; Week 16): 4.9 L/min
- Heart rate, median ([3]; Week 16): 76 bpm
- LV diameter, median ([3]; Week 16): 44.9 mm
- LV eccentricity, diast., median ([3]; Week 16): 1.0
- LV eccentricity, syst., median ([3]; Week 16): 1.2
- LVOT integral, median ([3]; Week 16): 19.5 cm
- LVOT, median ([3]; Week 16): 19.6 mm
- PVAT, median ([3]; Week 16): 89.9 ms
- RA area, median ([3]; Week 16): 17.5 cm^2
- RV MPI, median ([3]; Week 16): 0.4
- RV diameter, median ([3]; Week 16): 24.8 mm
- RV wall strain, median ([3]; Week 16): −19.2%
- RV/LV ratio, diastole, median ([3]; Week 16): 0.6
- TAPSE, median ([3]; Week 16): 19.9 mm
- Cardiac output, median Change from Baseline ([3]; baseline to Week 16): +0.5 L/min
- Heart rate, median Change from Baseline ([3]; baseline to Week 16): +2 bpm
- LV diameter, median Change from Baseline ([3]; baseline to Week 16): +3.5 mm
- LV eccentricity, diast., median Change from Baseline ([3]; baseline to Week 16): 0.0
- LV eccentricity, syst., median Change from Baseline ([3]; baseline to Week 16): +0.1
- LVOT integral, median Change from Baseline ([3]; baseline to Week 16): +0.9 cm
- LVOT, median Change from Baseline ([3]; baseline to Week 16): +0.4 mm
- PVAT, median Change from Baseline ([3]; baseline to Week 16): +4.4 ms
- RA area, median Change from Baseline ([3]; baseline to Week 16): −2.9 cm^2
- RV MPI, median Change from Baseline ([3]; baseline to Week 16): −0.1
- RV diameter, median Change from Baseline ([3]; baseline to Week 16): −2.6 mm
- RV wall strain, median Change from Baseline ([3]; baseline to Week 16): +1.3%
- RV/LV ratio, diastole, median Change from Baseline ([3]; baseline to Week 16): −0.1
- TAPSE, median Change from Baseline ([3]; baseline to Week 16): +1.2 mm
- outcomes, including 6-minute walk distances, in patients who attained higher total daily doses [4]: better outcomes

SMILES: CCCCC[C@H](O)CC[C@@H]1[C@H]2Cc3cccc(OCC(=O)O)c3C[C@H]2C[C@H]1O [parenteral treprostinil, treprostinil]
- Diarrhea, patients with AE [1, 8]: 18 (51) n (%)
- Extremity pain, patients with AE [1, 8]: 12 (34) n (%)
- Flushing, patients with AE [1, 8]: 10 (29) n (%)
- Headache, patients with AE [1, 8]: 28 (80) n (%)
- Jaw pain, patients with AE [1, 8]: 16 (46) n (%)
- Nausea, patients with AE [1, 8]: 24 (69) n (%)
- Vomiting, patients with AE [1, 8]: 13 (37) n (%)
- most bothersome AE [1]: extremity pain, followed by jaw pain, headache, and diarrhea
- patients reporting at least one treatment-emergent AE ([1]; patients who initiated parenteral treprostinil): All patients
- participants who received acetaminophen for prostacyclin-related headache [1]: 55%
- participants who received loperamide for prostacyclin-related diarrhea [1]: 34%
- participants who received ondansetron for prostacyclin-related nausea/vomiting [1]: 69%
- patients who improved WHO FC ([2]; transition visit, 29 patients): 76%
- patients who maintained WHO FC ([2]; transition visit, 29 patients): 21%
- patients who worsened WHO FC ([2]; transition visit, 29 patients): 3%
- 6MWD, median (IQR) [2, 9]: 377 (318, 453) m
- NT-proBNP, median (IQR) [2, 9]: 186 (110, 724) ng/L
- TAPSE, median (IQR) [3, 9]: 18.1 (14.8, 20.9) mm
- right atrial area, median (IQR) [3, 9]: 19.3 (16.0, 26.7) cm2

SMILES: O=C(O)COC[C@H]1CC[C@H](COC(=O)N(c2ccccc2)c2ccc(Cl)cc2)CC1 [ralinepag]
- outcomes, including pulmonary vascular resistance and 6-minute walk distances, versus placebo [5]: better outcomes

SMILES: CCCCC[C@H](O)CC[C@@H]1[C@H]2Cc3cccc(OCC(=O)O)c3C[C@H]2C[C@H]1O [treprostinil]
- Diarrhea, patients with AE ([1]; Transition Phase, n = 33): 17 (52) n (%)
- Extremity pain, patients with AE ([1]; Transition Phase, n = 33): 10 (30) n (%)
- Flushing, patients with AE ([1]; Transition Phase, n = 33): 10 (30) n (%)
- Headache, patients with AE ([1]; Transition Phase, n = 33): 19 (58) n (%)
- Jaw pain, patients with AE ([1]; Transition Phase, n = 33): 15 (46) n (%)
- Nausea, patients with AE ([1]; Transition Phase, n = 33): 21 (64) n (%)
- Vomiting, patients with AE ([1]; Transition Phase, n = 33): 5 (15) n (%)
